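Dose response: 5 concentrations. Exposure: 48 h. Format: 96-well plates. Endpoint: linear interpolation; highest concentration if not reached. Definition used: TGI = concentration required for complete inhibition of growth.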
Tests used:
Experiment in all cases: growth of human tumour cells (NCI), 48 h
CAKI-1 renal = test system: CAKI-1 renal
NCI-H522 lung = test system: NCI-H522 lung
PC-3 prostate = test system: PC-3 prostate
NCI/ADR-RES ovarian = test system: NCI/ADR-RES ovarian
NCI-H23 lung = test system: NCI-H23 lung
HL-60(TB) leukemia = test system: HL-60(TB) leukemia
HT29 colon = test system: HT29 colon
UO-31 renal = test system: UO-31 renal
A498 renal = test system: A498 renal
SF-539 CNS = test system: SF-539 CNS
TK-10 renal = test system: TK-10 renal
RXF 393 renal = test system: RXF 393 renal
SW-620 colon = test system: SW-620 colon
T-47D breast = test system: T-47D breast
A549 NSCLC = test system: A549 NSCLC
SK-MEL-28 melanoma = test system: SK-MEL-28 melanoma
HOP-62 NSCLC = test system: HOP-62 NSCLC
NCI-H460 lung = test system: NCI-H460 lung
COLO 205 colon = test system: COLO 205 colon
SN12C renal = test system: SN12C renal
MDA-MB-435 = test system: MDA-MB-435
M14 melanoma = test system: M14 melanoma
786-0 renal = test system: 786-0 renal
SNB-75 CNS = test system: SNB-75 CNS
K-562 leukemia = test system: K-562 leukemia
HCC-2998 colon = test system: HCC-2998 colon
ACHN renal = test system: ACHN renal
IGROV1 ovarian = test system: IGROV1 ovarian
SNB-19 CNS = test system: SNB-19 CNS
OVCAR-5 ovarian = test system: OVCAR-5 ovarian
UACC-62 melanoma = test system: UACC-62 melanoma
KM12 colon = test system: KM12 colon
NCI-H226 lung = test system: NCI-H226 lung
DU-145 prostate = test system: DU-145 prostate
MCF7 breast = test system: MCF7 breast
OVCAR-4 ovarian = test system: OVCAR-4 ovarian
HS 578T breast = test system: HS 578T breast
CCRF-CEM leukemia = test system: CCRF-CEM leukemia
SF-295 CNS = test system: SF-295 CNS
SF-268 CNS = test system: SF-268 CNS
U251 CNS = test system: U251 CNS
HOP-92 NSCLC = test system: HOP-92 NSCLC
BT-549 breast = test system: BT-549 breast
UACC-257 melanoma = test system: UACC-257 melanoma
MALME-3M melanoma = test system: MALME-3M melanoma
SK-MEL-5 melanoma = test system: SK-MEL-5 melanoma
HCT-15 colon = test system: HCT-15 colon
MOLT-4 leukemia = test system: MOLT-4 leukemia
OVCAR-3 ovarian = test system: OVCAR-3 ovarian
OVCAR-8 ovarian = test system: OVCAR-8 ovarian
LOX IMVI melanoma = test system: LOX IMVI melanoma
HCT-116 colon = test system: HCT-116 colon
EKVX NSCLC = test system: EKVX NSCLC
RPMI-8226 leukemia = test system: RPMI-8226 leukemia
SR leukemia = test system: SR leukemia
MDA-MB-231 breast = test system: MDA-MB-231 breast
SK-MEL-2 melanoma = test system: SK-MEL-2 melanoma

Compound: COC(=O)c1ccc(C)cc1/C=C1\Cc2ccc(C)cc2C1=O
- TGI (CAKI-1 renal): 94.3 µM
- TGI (NCI-H522 lung): 45 µM
- TGI (PC-3 prostate): > 100 µM
- TGI (NCI/ADR-RES ovarian): > 100 µM
- TGI (NCI-H23 lung): 99.4 µM
- TGI (HL-60(TB) leukemia): 18.2 µM
- TGI (HT29 colon): 40.9 µM
- TGI (UO-31 renal): 26.3 µM
- TGI (A498 renal): 47.9 µM
- TGI (SF-539 CNS): 28.3 µM
- TGI (TK-10 renal): 42.4 µM
- TGI (RXF 393 renal): 31.9 µM
- TGI (SW-620 colon): 51.3 µM
- TGI (T-47D breast): 69.6 µM
- TGI (A549 NSCLC): 98.4 µM
- TGI (SK-MEL-28 melanoma): 34.6 µM
- TGI (HOP-62 NSCLC): 39.5 µM
- TGI (NCI-H460 lung): > 100 µM
- TGI (COLO 205 colon): 25.1 µM
- TGI (SN12C renal): 32.9 µM
- TGI (MDA-MB-435): 20.2 µM
- TGI (M14 melanoma): 33.5 µM
- TGI (786-0 renal): 50 µM
- TGI (SNB-75 CNS): 44 µM
- TGI (K-562 leukemia): 42.8 µM
- TGI (HCC-2998 colon): 38.4 µM
- TGI (ACHN renal): > 100 µM
- TGI (IGROV1 ovarian): 45.8 µM
- TGI (SNB-19 CNS): 68.7 µM
- TGI (OVCAR-5 ovarian): 42.3 µM
- TGI (UACC-62 melanoma): 26.7 µM
- TGI (KM12 colon): 33.8 µM
- TGI (NCI-H226 lung): 24.9 µM
- TGI (DU-145 prostate): 39 µM
- TGI (MCF7 breast): 40.6 µM
- TGI (OVCAR-4 ovarian): 46.1 µM
- TGI (HS 578T breast): 59.4 µM
- TGI (CCRF-CEM leukemia): > 100 µM
- TGI (SF-295 CNS): 41.1 µM
- TGI (SF-268 CNS): 48.4 µM
- TGI (U251 CNS): 32.3 µM
- TGI (HOP-92 NSCLC): 35.2 µM
- TGI (BT-549 breast): 30 µM
- TGI (UACC-257 melanoma): 51.5 µM
- TGI (MALME-3M melanoma): 30.1 µM
- TGI (SK-MEL-5 melanoma): 29.7 µM
- TGI (HCT-15 colon): 43.1 µM
- TGI (MOLT-4 leukemia): > 100 µM
- TGI (OVCAR-3 ovarian): 31.2 µM
- TGI (OVCAR-8 ovarian): 59 µM
- TGI (LOX IMVI melanoma): 25.6 µM
- TGI (HCT-116 colon): 23.2 µM
- TGI (EKVX NSCLC): 88.4 µM
- TGI (RPMI-8226 leukemia): 39.6 µM
- TGI (SR leukemia): 9.13 µM

Compound: CN(C)c1nncc2[nH]cnc12
- TGI (CAKI-1 renal): > 100 µM
- TGI (PC-3 prostate): > 100 µM
- TGI (NCI/ADR-RES ovarian): > 100 µM
- TGI (NCI-H23 lung): > 100 µM
- TGI (HL-60(TB) leukemia): > 100 µM
- TGI (HT29 colon): > 100 µM
- TGI (UO-31 renal): > 100 µM
- TGI (A498 renal): > 100 µM
- TGI (SF-539 CNS): > 100 µM
- TGI (TK-10 renal): > 100 µM
- TGI (RXF 393 renal): > 100 µM
- TGI (SW-620 colon): > 100 µM
- TGI (T-47D breast): > 100 µM
- TGI (A549 NSCLC): > 100 µM
- TGI (SK-MEL-28 melanoma): > 100 µM
- TGI (HOP-62 NSCLC): > 100 µM
- TGI (NCI-H460 lung): > 100 µM
- TGI (COLO 205 colon): > 100 µM
- TGI (SN12C renal): > 100 µM
- TGI (MDA-MB-435): > 100 µM
- TGI (M14 melanoma): > 100 µM
- TGI (786-0 renal): > 100 µM
- TGI (SNB-75 CNS): > 100 µM
- TGI (K-562 leukemia): > 100 µM
- TGI (ACHN renal): > 100 µM
- TGI (IGROV1 ovarian): > 100 µM
- TGI (SNB-19 CNS): > 100 µM
- TGI (OVCAR-5 ovarian): > 100 µM
- TGI (MDA-MB-231 breast): > 100 µM
- TGI (UACC-62 melanoma): > 100 µM
- TGI (KM12 colon): > 100 µM
- TGI (NCI-H226 lung): > 100 µM
- TGI (DU-145 prostate): > 100 µM
- TGI (MCF7 breast): > 100 µM
- TGI (HS 578T breast): > 100 µM
- TGI (CCRF-CEM leukemia): > 100 µM
- TGI (SF-295 CNS): > 100 µM
- TGI (SF-268 CNS): > 100 µM
- TGI (U251 CNS): > 100 µM
- TGI (BT-549 breast): > 100 µM
- TGI (SK-MEL-2 melanoma): > 100 µM
- TGI (UACC-257 melanoma): > 100 µM
- TGI (SK-MEL-5 melanoma): > 100 µM
- TGI (HCT-15 colon): > 100 µM
- TGI (MOLT-4 leukemia): > 100 µM
- TGI (OVCAR-3 ovarian): > 100 µM
- TGI (OVCAR-8 ovarian): > 100 µM
- TGI (HCT-116 colon): > 100 µM
- TGI (EKVX NSCLC): > 100 µM
- TGI (RPMI-8226 leukemia): > 100 µM
- TGI (SR leukemia): > 100 µM

Source: PubChem BioAssay (NCI)
